The record followed here is patent US11472808B2, “Substituted pyrrolo[1,2-c]pyrimidines as hepatitis B antiviral agents” (Enanta Pharmaceuticals, Inc., priority 2019, dated 2022).

Data set [1] in a line: Compound toxicity, ATPLite total ATP levels. It counts as cell-based. The settings on record: human, HepG2 cells; concentration reducing total ATP levels by 50% relative to no drug controls; ATPLite three days after compound addition. The method, then:
Compound toxicity is evaluated by seeding cells at 15,000 cells/well and treating with compound as described above.
(In general: Cellular ATP, detected with luciferase, serves as a proxy for viable cell number.)

The subject of a further data set is HBV. Briefly: HepAD38 anti-HBV assay: reduction of viral product accumulation (virion DNA qPCR, HBsAg/HBeAg ELISA). Particulars: Hepatitis B virus, 120 h; HepAD38 cells; concentration reducing viral product accumulation by 50% relative to no drug controls; harvest five days after compound addition; read-out: HepAD38 EC50. It counts as cell-based. In outline:
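EC50 values reflect 50% reduction, relative to untreated controls, in virion DNA (qPCR) or HBsAg/HBeAg (ELISA) from lysates or supernatants. Washed HepAD38 cells without tetracycline were exposed to compound for 5 days. In the 8-day variant, medium and compound were renewed on days 2 and 5.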
(In qPCR the cycle at which signal appears reflects the starting amount.)

`O=S(=O)(N[C@H]1CC2=C(c3ccn(C(F)F)n3)[C@H](c3ccc(F)cc3Cl)N=C(c3nccs3)N2C1)N[C@H]1CC[C@H](O)CC1` [Example 155] registered a CC50 at 3 days in data set [1] greater than 25 µM. Further, in the data set on HBV, the EC50 was less than 0.1 µM.

`CS(=O)(=O)c1cccc(S(=O)(=O)N[C@H]2CC3=C(c4ccn(C(F)F)n4)[C@H](c4ccc(F)cc4Cl)N=C(c4nccs4)N3C2)c1` [Example 336]: in data set [1], the CC50 at 3 days was greater than 25 µM. For the same compound, the EC50 in the data set on HBV was less than 0.1 µM.

`O=S(=O)(N[C@H]1CC2=C(c3ccn(C(F)F)n3)[C@H](c3ccc(F)cc3Cl)N=C(c3nccs3)N2C1)N1CCC[C@H](O)C1` [Example 93] gave a CC50 at 3 days in data set [1] greater than 25 µM. In the data set on HBV, the EC50 is less than 0.1 µM.

As to `O=S(=O)(N[C@H]1CC2=C(c3ccn(C(F)F)n3)[C@H](c3ccc(F)cc3Cl)N=C(c3nccs3)N2C1)N1CCC(O)(c2nccs2)CC1` [Example 260], the CC50 at 3 days in data set [1] was greater than 25 µM. For the same compound, the EC50 with HBV was less than 0.1 µM.

In data set [1], `Cn1ccc(S(=O)(=O)N[C@H]2CC3=C(c4ccn(C(F)F)n4)[C@H](c4ccc(F)cc4Cl)N=C(c4nccs4)N3C2)n1` [Example 394] yielded a cytotoxic concentration (CC50) at 3 days greater than 25 µM. Moreover, in the data set with HBV, the EC50 is less than 0.1 µM.

On to `Cc1ccc(S(=O)(=O)N[C@H]2CC3=C(c4ccn(C(F)F)n4)[C@H](c4ccc(F)cc4Cl)N=C(c4nccs4)N3C2)cn1` [Example 401], for which the CC50 at 3 days in data set [1] was greater than 25 µM. The EC50 in the data set on HBV is less than 0.1 µM.

In data set [1], `CS(=O)(=O)N1CCN(S(=O)(=O)N[C@H]2CC3=C(c4ccn(C(F)F)n4)[C@H](c4ccc(F)cc4Cl)N=C(c4nccs4)N3C2)CC1` [Example 151] displayed a CC50 at 3 days greater than 25 µM. For the same compound, in the data set with HBV, the EC50 is less than 0.1 µM.

As to `O=C(N[C@H]1CC2=C(c3ccn(C(F)F)n3)[C@H](c3ccc(F)cc3Cl)N=C(c3nccs3)N2C1)c1ccccc1` [Example 213], the CC50 at 3 days in data set [1] lay in the range of 10 to 25 µM. The half-maximal effective concentration (EC50) in the data set on HBV was less than 0.1 µM.

`O=S(=O)(N[C@H]1CC2=C(c3ccn(C(F)F)n3)[C@H](c3ccc(F)cc3Cl)N=C(c3nccs3)N2C1)N1CCCCC12CCC2` [Example 285] gave a CC50 at 3 days in data set [1] greater than 25 µM. For the same compound, the concentration for a half-maximal effect (EC50) in the data set on HBV is less than 0.1 µM.

As for `Cn1ccc(C2(O)CCN(S(=O)(=O)N[C@H]3CC4=C(c5ccn(C(F)F)n5)[C@H](c5ccc(F)cc5Cl)N=C(c5nccs5)N4C3)CC2)n1` [Example 304], the CC50 at 3 days in data set [1] was greater than 25 µM. The EC50 with HBV is less than 0.1 µM.

For the compound `O=C1NC[C@@H](CNC(=O)c2cccc(S(=O)(=O)N[C@H]3CC4=C(c5ccn(C(F)F)n5)[C@H](c5ccc(F)cc5Cl)N=C(c5nccs5)N4C3)c2)O1` [Example 420], in data set [1], the CC50 at 3 days is greater than 25 µM. The EC50 in the data set with HBV is less than 0.1 µM.

With `O=S(=O)(N[C@H]1CC2=C(c3ccn(C(F)F)n3)[C@H](c3ccc(F)cc3Cl)N=C(c3nccs3)N2C1)N1C[C@@H](F)[C@@H](F)C1` [Example 274], in data set [1], the CC50 at 3 days is less than 10 µM. The concentration giving a half-maximal response (EC50) with HBV is less than 0.1 µM.

Take `O=S1(=O)CCN(S(=O)(=O)N[C@H]2CC3=C(c4ccn(C(F)F)n4)[C@H](c4ccc(F)cc4Cl)N=C(c4nccs4)N3C2)CC1` [Example 150]: the CC50 at 3 days in data set [1] is greater than 25 µM. For the same compound, the EC50 in the data set with HBV was less than 0.1 µM.

Consider `O=S(=O)(N[C@H]1CC2=C(c3ccn(C(F)F)n3)[C@H](c3ccc(F)cc3Cl)N=C(c3nccs3)N2C1)c1ccc(-c2cccnc2)cn1` [Example 403], for which the CC50 at 3 days in data set [1] was greater than 25 µM. The EC50 in the data set with HBV was less than 0.1 µM.

The compound `O=S(=O)(N[C@H]1CC2=C(c3ccn(C(F)F)n3)[C@H](c3ccc(F)cc3Cl)N=C(c3nccs3)N2C1)N1CCOCC1` [Example 74] came in with a CC50 at 3 days in data set [1] greater than 25 µM. Moreover, the EC50 with HBV was less than 0.1 µM.

In turn, `O=S(=O)(N[C@H]1CC2=C(c3ccn(C(F)F)n3)[C@H](c3ccc(F)cc3Cl)N=C(c3nccs3)N2C1)c1ccc(F)cc1F` [Example 388] had a CC50 at 3 days in data set [1] greater than 25 µM. Also, the EC50 in the data set with HBV is less than 0.1 µM.

On to `O=S(=O)(N[C@H]1CC2=C(c3ccn(C(F)F)n3)[C@H](c3ccc(F)cc3Cl)N=C(c3nccs3)N2C1)N1CCCC[C@@H]1C(F)(F)F` [Example 301], for which the CC50 at 3 days in data set [1] was greater than 25 µM. In the data set with HBV, the EC50 is less than 0.1 µM.

As to `O=S1(=O)NCCN1[C@H]1CC2=C(c3ccn(C(F)F)n3)[C@H](c3ccc(F)cc3Cl)N=C(c3nccs3)N2C1` [Example 376], the CC50 at 3 days in data set [1] was greater than 25 µM. Also, the half-maximal effective concentration (EC50) with HBV was less than 0.1 µM.

In turn, `O=S(=O)(N[C@H]1CC2=C(c3ccn(C(F)F)n3)[C@H](c3ccc(F)cc3Cl)N=C(c3nccs3)N2C1)[C@H]1C[C@](O)(c2ccccn2)C1` [Example 371] came in with a CC50 at 3 days in data set [1] of 10 to 25 µM. Also, in the data set with HBV, the concentration for a half-maximal effect (EC50) was less than 0.1 µM.

On to `CS(=O)(=O)c1ccc(S(=O)(=O)N[C@H]2CC3=C(c4ccn(C(F)F)n4)[C@H](c4ccc(F)cc4Cl)N=C(c4nccs4)N3C2)cc1` [Example 323], for which the CC50 at 3 days in data set [1] lay within 10 to 25 µM. Besides, the 50% effective concentration (EC50) in the data set on HBV was less than 0.1 µM.

Regarding `CS(=O)(=O)Nc1ccc(S(=O)(=O)N[C@H]2CC3=C(c4ccn(C(F)F)n4)[C@H](c4ccc(F)cc4Cl)N=C(c4nccs4)N3C2)cc1` [Example 357], in data set [1], the CC50 at 3 days was greater than 25 µM. Further, the EC50 in the data set with HBV was less than 0.1 µM.

As for `O=C1NC[C@H](CNC(=O)c2cccc(S(=O)(=O)N[C@H]3CC4=C(c5ccn(C(F)F)n5)[C@H](c5ccc(F)cc5Cl)N=C(c5nccs5)N4C3)c2)O1` [Example 421], the CC50 at 3 days in data set [1] was greater than 25 µM. For the same compound, the concentration for a half-maximal effect (EC50) in the data set with HBV is less than 0.1 µM.

Regarding `CN(CCO)S(=O)(=O)N[C@H]1CC2=C(c3ccn(C(F)F)n3)[C@H](c3ccc(F)cc3Cl)N=C(c3nccs3)N2C1` [Example 81], the CC50 at 3 days in data set [1] is greater than 25 µM. Also, the EC50 in the data set with HBV is less than 0.1 µM.

`O=S(=O)(N[C@H]1CC2=C(c3ccn(C(F)F)n3)[C@H](c3ccc(F)cc3Cl)N=C(c3nccs3)N2C1)N1CCCC1` [Example 271] came in with a CC50 at 3 days in data set [1] of 10 to 25 µM. Also, in the data set on HBV, the EC50 was less than 0.1 µM.

As for `O=S(=O)(N[C@H]1CC2=C(c3ccn(C(F)F)n3)[C@H](c3ccc(F)cc3Cl)N=C(c3nccs3)N2C1)c1cnn(S(=O)(=O)c2cn[nH]c2)c1` [Example 21], the CC50 at 3 days in data set [1] is 10 to 25 µM. Moreover, the EC50 in the data set on HBV is less than 0.1 µM.

For `CS(=O)(=O)C1CN(S(=O)(=O)N[C@H]2CC3=C(c4ccn(C(F)F)n4)[C@H](c4ccc(F)cc4Cl)N=C(c4nccs4)N3C2)C1` [Example 337], in data set [1], the CC50 at 3 days was greater than 25 µM. Further, in the data set on HBV, the EC50 is less than 0.1 µM.

On to `O=S(=O)(NCCO)N[C@H]1CC2=C(c3ccn(C(F)F)n3)[C@H](c3ccc(F)cc3Cl)N=C(c3nccs3)N2C1` [Example 78], for which the cytotoxic concentration (CC50) at 3 days in data set [1] was greater than 25 µM. Further, the EC50 in the data set on HBV is less than 0.1 µM.

On to `O=S(=O)(N[C@H]1CC2=C(c3ccn(C(F)F)n3)[C@H](c3ccc(F)cc3Cl)N=C(c3nccs3)N2C1)c1ccc(S(=O)(=O)C(F)F)cc1` [Example 340], for which the CC50 at 3 days in data set [1] is greater than 25 µM. In addition, the EC50 in the data set on HBV is less than 0.1 µM.

Compound `O=S(=O)(N[C@H]1CC2=C(c3ccn(C(F)F)n3)[C@H](c3ccc(F)cc3Cl)N=C(c3nccs3)N2C1)C1CCC1` [Example 324] came in with a CC50 at 3 days in data set [1] of 10 to 25 µM. For the same compound, the EC50 with HBV is less than 0.1 µM.

`C[C@]1(O)CC[C@@H](c2ccc(S(=O)(=O)N[C@H]3CC4=C(c5ccn(C(F)F)n5)[C@H](c5ccc(F)cc5Cl)N=C(c5nccs5)N4C3)cc2)CC1` [Example 410] gave a CC50 at 3 days in data set [1] greater than 25 µM. Besides, the EC50 with HBV is less than 0.1 µM.

`CC1(O)CCN(S(=O)(=O)N[C@H]2CC3=C(c4ccn(C(F)F)n4)[C@H](c4ccc(F)cc4Cl)N=C(c4nccs4)N3C2)C1` (some centres unmarked) [Example 282]: the CC50 at 3 days in data set [1] is greater than 25 µM. In addition, the 50% effective concentration (EC50) with HBV was less than 0.1 µM.

Broadly, the CC50 is the concentration that lowers cell viability or growth by half. A low value points to greater toxicity to the cells. In general, EC50 refers to the concentration that produces a half-maximal response.
